The results in this text go back to patent US4060612A, “Pharmaceutically active 2-omega-aminoalkoxydiphenyl sulfides” (Mitsubishi Chemical Industries Ltd., priority 1976, dated 1977).

Counter-ions that a name gives are not always drawn. Like-named read-outs stand apart in the source and are kept apart here.

The test system of data set [1] is reserpine induced hypothermia. The data set is described as follows: Antagonism of reserpine induced hypothermia in mice (antidepressant / antireserpine activity). Conditions: for Relative Potency (antireserpine activity, Amitriptyline = 1): reserpine 5 mg/kg i.p., compounds given intraperitoneally. Format: in vivo. Here is the method: (§1) Anticonvulsant activity has also been discovered in the compounds of this invention. The compounds have been tested in mice for antidepressant, sedative, anticonvulsant and anticholinergic activity. The compounds were administered intraperitoneally and the activities of the compounds were compared with those of Amitriptyline. Antidepressant activity was evaluated by antagonism of reserpine (5 mg/kg, i.p.) induced hypothermia (P. S. J. Spencer in "Antidepressant Drugs", S. Garattini and M. N. G. Duhes, ed., Excerpta Medica Foundation, Amsterdam, pages 194-204 (1967)) and antireserpine activity was expressed as relative potency (Amitriptyline = 1). LD50 was calculated by the Litchfield-Wilcoxon method. CNS depressant activity was defined by the ability of the compounds to cause neurological deficit as measured by a traction test (S. Courvoisier, R. Ducrot, L. Julou; "Psychotropic Drugs" ed. by S. Garattini, V. Ghetti, page 373 (1957)) and spontaneous motor activity. (Spontaneous motor activity was measured by an ANIMEX apparatus.) Anticonvulsant activity was determined by antagonism of electroshock induced tonic extensor [L. S. Goodman, M. Singh Grewal, W. C. Brown and E. A. Swinyard, J. Pharmacol, Exptal. Therap., 108, 168 (1953)]. Central anticholinergic effect was assessed by testing a tremorine induced tremor in mice [G. M. Everett, L. E. Bloucus and J. M. Sheppard, Science 124, 79 (1956)]. Results of these tests are summarized in Tables I and II, in which ED50 is defined as the dose of the test compounds which prevents 50% of each response.

Data set [2] has as its system neurological deficit (traction test). Briefly: CNS depressant activity: muscle relaxant action (traction test). The data set is classed as in vivo, mice. As to conditions: for ED50: Mus musculus, ip, read-out: Muscle Relaxant Action ED50. Here is the method: as §1
Data set [3] in a line: Acute toxicity, LD50 (Litchfield-Wilcoxon method). The data set is classed as in vivo. Conditions: for LD50: mouse, in vivo, ip. The procedure: as §1
The test system of data set [4] is electroshock induced tonic extensor. Briefly: Anticonvulsant activity: antagonism of electroshock induced tonic extensor. The data set is classed as in vivo, mice. As to conditions: Mus musculus, ip, read-out: Anticonvulsant Activity ED50. The procedure:
as §1, with “Therap., 108, 168 (1953)].” left out, “Results of these tests are summarized in Tables I and II, in which ED50 is defined as the dose of the test compounds which prevents 50% of each response.” left out

The subject of the next data set is tremorine induced tremor. The data set is described as follows: Central anticholinergic effect: tremorine induced tremor in mice. As to conditions: for ED50: Mus musculus, ip, read-out: Antitremorine Effect ED50. The data set is classed as in vivo. The procedure:
as §1

Data set [5] concerns spontaneous motor activity. The data set is described as follows: CNS depressant activity: spontaneous motor activity (ANIMEX apparatus). The data set is classed as in vivo, mice. As to conditions: Mus musculus, ip, read-out: Spontaneous Motor Activity Depression ED50. The procedure: as §1, with “Therap., 108, 168 (1953)].” left out, “Results of these tests are summarized in Tables I and II, in which ED50 is defined as the dose of the test compounds which prevents 50% of each response.” left out

Setting [6] is: intraperitoneal, mice, Litchfield-Wilcoxon, read-out: LD50.

With `CN(C)CCCCCOc1ccccc1Sc1ccccc1` [2-(5-dimethylaminopentyloxy) diphenyl sulfide hydrochloride], in data set [1], the “Relative Potency (antireserpine activity, Amitriptyline = 1)” value (“Relative Potency” for short) was 0.15.

For the compound `CNCCCCOc1ccccc1Sc1ccccc1` [2-(4-methylaminobutoxy) diphenyl sulfide hydrochloride], the ED50 (commonly the dose that gives a 50% effect, or the effect in half of the subjects) in data set [2] (traction test, mice, i.p., CNS depressant activity) was 50 mg/kg; in data set [4] (electroshock, mice, i.p., dose which prevents 50% of response) it was above 60 mg/kg; with tremorine induced tremor (tremorine induced tremor, mice, i.p., central anticholinergic) it was 30 mg/kg; in data set [5] (ANIMEX, mice, i.p., CNS depressant activity) it was above 60 mg/kg. The “CNS depressant action (in words)” value in data set [2] (mice, i.p., traction test and spontaneous motor activity) is “weak”. Also, in data set [3] (mice, i.p., from Tables I and II), the “toxicity (in words)” value is on record as “low toxicity”. In data set [3], the LD50 (as a rule, the dose expected to kill half of the subjects tested) was determined as 120 mg/kg. Also, in the data set with tremorine induced tremor (mice, i.p.), the “anticholinergic action (in words)” value was “weak CNS depressant and anticholinergic action”. Moreover, the “antireserpine activity (in words)” value in data set [1] (i.p., from Tables I and II) is recorded as “comparable to that of Amitriptyline”. In addition, the “Relative Potency” value in data set [1] is 0.90.

`CNCCCOc1ccccc1Sc1ccccc1` [2-(3-methylaminopropoxy) diphenyl sulfide hydrochloride]: the LD50 in data set [3] (setting [6]) was determined as 135 mg/kg. Also, the “Relative Potency” value in data set [1] is recorded as 0.60.

On to `CN(C)CCC=C1c2ccccc2CCc2ccccc21` [Amitriptyline, reference compound], for which the ED50 in data set [2] is 15 mg/kg; in data set [4], 16 mg/kg; in the data set with tremorine induced tremor it was 4 mg/kg; in data set [5], 18 mg/kg.

On to `NCCCCOc1ccccc1Sc1ccccc1` [2-(4-aminobutoxy) diphenyl sulfide hydrochloride], for which, in data set [1], the “Relative Potency” value came out at 0.36.

With `CN(C)CCCCOc1ccccc1Sc1ccccc1` [2-(4-dimethylaminobutoxy)-diphenyl sulfide hydrochloride], the LD50 in data set [3] (setting [6]) is 130 mg/kg. Moreover, the “Relative Potency” value in data set [1] stood at 0.70.

Regarding `c1ccc(Sc2ccccc2OCCCCN2CCOCC2)cc1` [2-(4-morpholinobutoxy) diphenyl sulfide hydrochloride], the “Relative Potency” value in data set [1] is on record as 0.38.

With `CN(C)CCCOc1ccccc1Oc1ccccc1` [2-(3-dimethylaminopropoxy) diphenyl ether hydrochloride, reference compound], the “Relative Potency” value in data set [1] amounted to 0.14.
